How the values were obtained:
Assay type in all cases: physicochemical
[1] = Vapor-diffusion-into-solution crystallization, solid form after evaporation
From the text: The open vials were placed in a larger container with anti-solvent and the vapors were allowed to diffuse into the cannabidiol solution for two weeks. The effect of the anti-solvent, however, was too low to induce any precipitation of cannabidiol and, therefore, it was decided to evaporate the mother liquors and analyze the remaining solids. Crystalline solid was only found after evaporation of the Toluene/2,2,4-Trimethylepentane solution.

[2] = Crystallization by single solvent drop grinding, HT-XRPD before and after AAC
Experimental: For the grinding experiments, 40 mg cannabidiol was placed in a stainless steel container with 10 μL solvent and two steel beads. The vials were shaken for 1 hour at 30 Hz, after which the solids were collected for XRPD analysis. All of the samples were classified as Form A based on HT-XRPD analysis.

[3] = Crash cooling crystallization, XRPD before and after AAC; details: for Dissolved at start / Solids after T profile / Solid form by HT-XRPD Evaporation of ML Before: 50 mg/mL
Experimental: As a variation on the above cooling crystallization experiments, several crash cooling crystallization were performed. In order to modulate the solubility of cannabidiol, crash cooling experiments were performed in solvent mixtures. Clear solutions of 50 mg/mL of cannabidiol were prepared in solvent mixtures and rapidly cooled in an ice bath. Vials were then placed at −20° C. for 48 hours. Precipitated solids and mother liquors were treated as described above for the ordinary cooling crystallization experiments. Only from heptane/pentane cooling did there result in the precipitation of a solid. […] When no XRPD record was generated, the field is defined as “Not Applicable” (N/A) in Table 29.

[4] = Cooling crystallization, XRPD before and after AAC
Experimental: Cooling crystallizations were performed by preparing clear solutions of CBD with a maximum concentration of approximately 60 mg/mL. The solutions were slowly cooled to 0° C. and kept at this temperature for 48 hours. Precipitated solids were collected, dried under ambient conditions, and analyzed by XRPD. If no solids had precipitated, the mother liquors were allowed to slowly evaporate and the remaining solids were analyzed by XRPD. All solids were exposed to accelerated aging conditions for 48 hours and analyzed again by XRPD. Cannabidiol precipitated upon cooling from pentane and heptane. […] When no XRPD record was generated, the field is defined as “Not Applicable” (N/A).

[5] = solvent 1,4-Dioxane, anti-solvent 2,2,4-Trimethylpentane
[6] = solvent 1,4-Dioxane, anti-solvent Water
[7] = solvent 2-Methoxyethanol, anti-solvent 2,2,4-Trimethylpentane
[8] = solvent 4-methyl-2-pentanone, anti-solvent 2,2,4-Trimethylpentane
[9] = solvent Acetonitrile, anti-solvent Water
[10] = solvent Ethyl acetate, anti-solvent 2,2,4-Trimethylpentane
[11] = solvent Isobutanol, anti-solvent Water
[12] = solvent Isopropanol, anti-solvent Water
[13] = solvent Tetrahydrofuran, anti-solvent Water

In the case of C=C(C)[C@@H]1CCC(C)=C[C@H]1c1c(O)cc(CCCCC)cc1O [CBD, (1′R,2′R)-5′-methyl-4-pentyl-2′-(prop-1-en-2-yl)-1′,2′,3′,4′-tetrahydro-[1,1′-biphenyl]-2,6-diol], the “Effect of accelerated aging conditions” value [1] is reported as “no effect on the physical appearance”, the “XRPD of solid after evaporation” value ([1]; Toluene/2,2,4-Trimethylepentane solution) is reported as “Form A” and the “Precipitation?” value [1, 5] is reported as “No”. The “Solid form after evaporation After AAC” value [1, 5] was “Oil”, the “Solid form after evaporation Before AAC” value [1, 5] was “Oil” and the “Precipitation?” value [1, 6] was “No”. The “Solid form after evaporation After AAC” value [1, 6] was “Oil”, the “Solid form after evaporation Before AAC” value [1, 6] was “Oil” and the “Precipitation?” value [1, 7] was “No”. The “Solid form after evaporation After AAC” value [1, 7] was “Oil”, the “Solid form after evaporation Before AAC” value [1, 7] was “Oil” and the “Precipitation?” value [1, 8] was “No”. For the same compound, the “Solid form after evaporation After AAC” value [1, 8] was “Oil”, the “Solid form after evaporation Before AAC” value [1, 8] was “Oil” and the “Precipitation?” value [1, 9] was “No”. The “Solid form after evaporation After AAC” value [1, 9] was “Oil”, the “Solid form after evaporation Before AAC” value [1, 9] was “Oil” and the “Precipitation?” value [1, 10] was “No”. For the same compound, the “Solid form after evaporation After AAC” value [1, 10] was “Oil”, the “Solid form after evaporation Before AAC” value [1, 10] was “Oil” and the “Precipitation?” value [1, 11] was “No”. The “Solid form after evaporation After AAC” value [1, 11] was “Oil”, the “Solid form after evaporation Before AAC” value [1, 11] was “Oil” and the “Precipitation?” value [1, 12] was “No”. For the same compound, the “Solid form after evaporation After AAC” value [1, 12] was “Oil”, the “Solid form after evaporation Before AAC” value [1, 12] was “Oil” and the “Precipitation?” value [1, 13] was “No”. The “Solid form after evaporation After AAC” value [1, 13] was “Oil”, the “Solid form after evaporation Before AAC” value [1, 13] was “Oil” and the “Precipitation?” value ([1]; solvent Toluene, anti-solvent 2,2,4-Trimethylpentane) was “No”. The “Effect of accelerated aging conditions” value ([2]; AAC for two days) was “did not lead to any physical changes”, the “Form by HT-XRPD analysis” value ([2]; ground 1 hour at 30 Hz with 10 μL solvent, all samples) was “Form A” and the Dissolved at start ([3]; 1,4-Dioxane/Water (80/20)) was “Yes”. The “Solids after T profile” value ([3]; 1,4-Dioxane/Water (80/20)) was “No”, the “Effect of accelerated aging conditions” value ([3]; 40° C./75% RH for two days) was “no effect on the physical appearance” and the Dissolved at start ([3]; Acetone/2,2,4-Trimethylpentane) was “Yes”. For the same compound, the “Solids after T profile” value ([3]; Acetone/2,2,4-Trimethylpentane) was “No”, the Dissolved at start ([3]; Acetone/Water (80/20)) was “Yes” and the “Solid form by HT-XRPD Evaporation of ML Before” value (from here on “Solid form … of ML Before”) ([3]; Acetone/Water (80/20)) was “Oily”. The “Solids after T profile” value ([3]; Acetone/Water (80/20)) was “No”, the Dissolved at start ([3]; Acetonitrile/Water (80/20)) was “Yes” and the “Solids after T profile” value ([3]; Acetonitrile/Water (80/20)) was “No”. The Dissolved at start ([3]; Chloroform/Hexane (50/50)) was “Yes”, the “Solids after T profile” value ([3]; Chloroform/Hexane (50/50)) was “No” and the Dissolved at start ([3]; Ethanol/2,2,4-Trimethylpentane) was “Yes”. The “Solids after T profile” value ([3]; Ethanol/2,2,4-Trimethylpentane) was “No”, the Dissolved at start ([3]; Ethyl formate/Decane) was “Yes” and the “Solid form … of ML Before” value ([3]; Ethyl formate/Decane) was “Oily”. The “Solids after T profile” value ([3]; Ethyl formate/Decane) was “No”, the Dissolved at start ([3]; Heptane/Pentane (50/50)) was “Yes” and the “Solids after T profile” value ([3]; Heptane/Pentane (50/50)) was “Yes”. For the same compound, the Dissolved at start ([3]; Isopropanol/Decane (50/50)) was “Yes”, the “Solids after T profile” value ([3]; Isopropanol/Decane (50/50)) was “No” and the Dissolved at start ([3]; Tetrahydrofuran/Water (80/20)) was “Yes”. For the same compound, the “Solid form … of ML Before” value ([3]; Tetrahydrofuran/Water (80/20)) was “Oily”, the “Solids after T profile” value ([3]; Tetrahydrofuran/Water (80/20)) was “No” and the “Polymorphic form of precipitated solid” value ([3]; heptane/pentane, crash cooling, −20° C. for 48 hours) was “same polymorphic form as the starting material Form A”. For the same compound, the “Effect of accelerated aging conditions” value ([4]; AAC for 48 hours) was “no effect on the crystallinity”, the “XRPD of solids precipitated upon cooling” value ([4]; from pentane and heptane, cooled to 0° C., 48 hours) was “identical to starting material Form A” and the “Dissolved at initial T?” value ([4]; solvent 1,2-Dimethoxyethane) was “Yes”. For the same compound, the “Solids after T profile” value ([4]; solvent 1,2-Dimethoxyethane) was “No”, the “Dissolved at initial T?” value ([4]; solvent 1,4-Dioxane) was “Yes” and the “Solids after T profile” value ([4]; solvent 1,4-Dioxane) was “No”. For the same compound, the “Dissolved at initial T?” value ([4]; solvent 2,2,4-Trimethylpentane) was “No”, the “Solids after T profile” value ([4]; solvent 2,2,4-Trimethylpentane) was “No” and the “Dissolved at initial T?” value ([4]; solvent Acetone) was “Yes”. For the same compound, the “Form by HT-XRPD Dry solids” value ([4]; solvent Acetone) was “Oily”, the “Solids after T profile” value ([4]; solvent Acetone) was “No” and the “Dissolved at initial T?” value ([4]; solvent Acetonitrile) was “Yes”. For the same compound, the “Form by HT-XRPD Dry solids” value ([4]; solvent Acetonitrile) was “Oily”, the “Solids after T profile” value ([4]; solvent Acetonitrile) was “No” and the “Dissolved at initial T?” value ([4]; solvent Chloroform) was “Yes”. The “Form by HT-XRPD Dry solids” value ([4]; solvent Chloroform) was “Oily”, the “Solids after T profile” value ([4]; solvent Chloroform) was “No” and the “Dissolved at initial T?” value ([4]; solvent Cyclohexane) was “Yes”. The “Solids after T profile” value ([4]; solvent Cyclohexane) was “No”, the “Dissolved at initial T?” value ([4]; solvent Diethylene glycol) was “Yes” and the “Form by HT-XRPD Dry solids” value ([4]; solvent Diethylene glycol) was “Oily”. For the same compound, the “Solids after T profile” value ([4]; solvent Diethylene glycol) was “No”, the “Dissolved at initial T?” value ([4]; solvent Ethanol) was “Yes” and the “Solids after T profile” value ([4]; solvent Ethanol) was “No”. The “Dissolved at initial T?” value ([4]; solvent Ethyl acetate) was “Yes”, the “Form by HT-XRPD Dry solids” value ([4]; solvent Ethyl acetate) was “Oily” and the “Solids after T profile” value ([4]; solvent Ethyl acetate) was “No”. For the same compound, the “Dissolved at initial T?” value ([4]; solvent Heptane) was “Yes”, the “Form by HT-XRPD Dry solids” value ([4]; solvent Heptane) was “Oily” and the “Solids after T profile” value ([4]; solvent Heptane) was “No”. For the same compound, the “Dissolved at initial T?” value ([4]; solvent Hexane) was “No”, the “Solids after T profile” value ([4]; solvent Hexane) was “Yes” and the “Dissolved at initial T?” value ([4]; solvent Pentane) was “No”. The “Solids after T profile” value ([4]; solvent Pentane) was “Yes”, the “Dissolved at initial T?” value ([4]; solvent Tetrahydrofuran) was “Yes” and the “Form by HT-XRPD Dry solids” value ([4]; solvent Tetrahydrofuran) was “Oily”. The “Solids after T profile” value ([4]; solvent Tetrahydrofuran) was “No”, the “Dissolved at initial T?” value ([4]; solvent Water) was “No” and the “Form by HT-XRPD Dry solids” value ([4]; solvent Water) was “Low yield”. For the same compound, the “Solids after T profile” value ([4]; solvent Water) was “No”.

Source: patent US12144795B2, “Cannabidiol compositions having modified cannabinoid profiles” (priority 2018, dated 2024)
